Values quoted from earlier work, collected in patent US20100029716A1, “NOVEL 1,2,3,4- TETRAHYDROQUINOLINE DERIVATIVES” (CONCERT PHARMACEUTICALS, INC., priority 2006, published 2010).

Key:
[1] = healthy volunteers, 14-day dosing period
human CETP = biological target: T1, human CETP (Homo sapiens, UniProt P11597); conditions: transgenic hCETP mice
T1 construct: host or cells: transgenic mice expressing human CETP and apolipoprotein A1 (hCETP mice)
T1 sequence (P11597 18-493): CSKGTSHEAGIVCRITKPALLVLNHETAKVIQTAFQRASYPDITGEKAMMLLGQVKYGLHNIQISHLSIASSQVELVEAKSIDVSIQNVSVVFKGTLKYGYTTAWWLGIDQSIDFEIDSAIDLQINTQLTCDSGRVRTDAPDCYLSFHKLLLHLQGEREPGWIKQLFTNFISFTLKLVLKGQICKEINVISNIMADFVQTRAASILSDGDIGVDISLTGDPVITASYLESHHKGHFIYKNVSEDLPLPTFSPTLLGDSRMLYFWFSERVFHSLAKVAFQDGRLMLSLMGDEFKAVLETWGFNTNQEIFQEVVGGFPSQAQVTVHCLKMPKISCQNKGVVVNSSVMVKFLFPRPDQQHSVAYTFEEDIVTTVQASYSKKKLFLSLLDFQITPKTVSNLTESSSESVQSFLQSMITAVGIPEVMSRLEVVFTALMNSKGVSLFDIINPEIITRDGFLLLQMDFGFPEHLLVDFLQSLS

[2] = conventional formulations
atherosclerotic lesions = conditions: rabbit model of atherosclerosis

## CCOC(=O)N1c2ccc(C(F)(F)F)cc2[C@@H](N(Cc2cc(C(F)(F)F)cc(C(F)(F)F)c2)C(=O)OC)C[C@H]1CC [Compound 1, (2R,4S)-ethyl 4-((3,5-bis(trifluoromethyl)benzyl)-(methoxycarbonyl)amino)-2-ethyl-6-(trifluoromethyl)-3,4-dihydroquinoline-1(2H)-carboxylate]
[1]
  increase of HDL cholesterol levels: up to 91%
  reduction of LDL cholesterol: up to 42%
other
  aqueous solubility: poor
Human CETP
  rate of cholesterol oleate transfer from LDL donor particles to HDL: decreased rates
Human CETP; multiple dosing
  HDL cholesterol: increased HDL cholesterol
[2]
  oral bioavailability: low
Atherosclerotic lesions
  formation of atherosclerotic lesions: reduce the formation of atherosclerotic lesions
